Assay results published in patent US9149543B2, “Methods and models for rapid, widespread delivery of genetic material to the CNS using non-viral, cationic lipid-mediated vectors” (The Trustees of the University of Pennsylvania, priority 2005, dated 2015).

Experiment: DNA protection assay of DMDK lipoplex against DNase and human CSF (agarose gel)
Assay type: in vitro ADME
Conditions: lipoplex incubated with DNAses or human CSF in vitro
Protocol: Naked DNA and DMDK/DNA complexes were incubated at 37° C. for thirty minutes with 1 μl of RQ1 RNase-Free DNase and 10× Reaction Buffer (Promega, Madison, Wis.). One unit of RQ1 RNase-Free DNase (1 unit/μl) is defined as the amount required to completely degrade 1 μg of lambda DNA in 10 minutes at 37° C. in 50 μl of a buffered solution. After 30 minutes of incubation, aliquots were removed and used for transfection or phenol/chloroform extraction.
Incubation and transfection were also carried out in human CSF, obtained under an approved IRB protocol at the University of Pennsylvania, wherein CSF was collected under sterile conditions at the Hospital of the University of Pennsylvania during the normal course of pre-operative spinal anesthetic administration.
An equal volume of phenol/chlororform/isoamyl alcohol was added to the DNA solution. This solution was vortexed for 10 seconds, briefly centrifuged, and the aqueous layer removed and placed in a new tube. 1/10 volume of 3M sodium acetate was added and then vortexed. Next, 2.5 volumes of ice-cold 100% EtOH was added, vortexed and placed in a −70° C. freezer for 15 minutes. The solution was then microcentrifuged for 5 minutes at maximum speed, and the supernatant was removed. 1 ml of 70% EtOH (room temperature) was added, and centrifuged for 5 minutes at maximum speed. The supernatant was removed and the pellet dried. […]

CCCCCCCCCCCCCCC(=O)C(=O)CCCCCCCCCCCCCC [DMDK, Dimyristyl Diketone]
protection of plasmid DNA from degradation from DNAses or from human cerebral spinal fluid: effectively protect plasmid DNA from degradation
